Results reported in patent US20260234123A1, “Inhibitors of NLRP3” (Mwyngil Therapeutics, Inc., priority 2023, published 2026).

What follows are compounds tested on IL1b release THP-1 (assay: IL1b release THP-1 (ELISA)). Conditions: Homo sapiens; average EC50; THP-1 cells primed with 1 μg/ml LPS 4 h, stimulated with 10 μM Nigericin 2 h; IL-1β in supernatant by ELISA; read-out: THP 1 IL 1b, EC50.
Format: cell-based
Procedure: Example A. Primary Assays Used to Determine IL1b Release THP-1 (ELISA)
• Microbiological safety cabinet, classII (NuAire, USA) • CO2 incubator (VWR Science, USA) • Countess Automated Cell Counter (Invitrogen, USA, cat. number C10227) • Centrifuge CM 6M (Elmi, Latvia) • Serological pipettes 2, 5, 10, 25, 50, 100 ml sterile (Santa Cruz Biotechnology, Inc., USA, sc-200277, sc-200279, sc-200281, sc-200283, Sc-213234, sc-516777) • Single and multichannel pipettes 0.2-10 μL, 50-1200 μL (Eppendorf AG-Hamburg, Germany) • 50 mL PP sterile tubes (Greiner, cat. Number 210261).
• RPMI-1640 (PanEco, C330) • Sodium pyruvate (Paneco, cat. number Φ023) • Non-Essential amino acids 50× (Paneco, Φ116) • Essential amino acids 50× (Paneco, Φ115/50) • FBS (Hyclone Laboratories Inc, USA, SV30160.03) • Antibiotic-antimycotic (Gibco, USA, 15240-062) • 2-mercaptoethanol 1000×55 mM (Gibco, USA, 21985-023) • LPS-EB ultrapure (invivogen, cat. number tlrl-3pelps) • Nigericin (Sigma, cat. number N7143) • ELISA kit, IL-1beta (Cat #A-8766, Interleukin-1 beta-EIA-BEST, Vector Best). LPS Preparation (5 mg/ml): • 1. Add 1 ml of endotoxin-free water according manufacturer's protocol • 2. Vortex until complete solubilization • 3. Aliquote and store at […] for long term storage.
• 1. Add methanol to 10 mg of powder to produce the 10 mM Nigericin solution • 2. Vortex until complete solubilization • 3. Store at 4° C.
THP-1 cells were propagated in RPMI-1640 (10% FBS, Antibiotic-antimycotic 1×, non-Essential amino acids 1×, Essential amino acids 1×, Sodium pyruvate 2×, 2-mercaptoethanol 0.05 mM) at 37° C. and at 5% CO2 in an incubator.
• 1. THP-1 cells were spined at 100 g for 5 min in 50 ml tube. • 2. THP-1 cells were resuspended in warm culture medium (w/o FBS, w/o Antibiotic-antimycotic, non-Essential amino acids 1×, Essential amino acids 1×, Sodium pyruvate 2×) to the concentration 1,3×10^6 cells. • 3. THP-1 cells were primed in tube with 1 μg/ml of LPS for 4 h at 37° C. and at 5% CO2 in an incubator. • 4. THP-1 cells were stimulated with 10 μM of Nigericin (Cat #N7143-10 MG, Sigma Aldrich) for 2 h at 37° C. and at 5% CO2 in an incubator. • 5. After the full activation, the supernatant was collected and the levels of IL-1β were assessed via ELISA according manufacturer instructions (Cat #A-8766, Vector Best).
The average EC50 values are shown in Table A, wherein “A” corresponds to EC50: A≤0.5 μM, “B” corresponds to 0.5 μM<EC50≤1.0 μM, “C” 1.0 μM<EC50≤5.0 μM, “D” corresponds to 5.0 μM<EC50≤30 μM and “E” corresponds to EC50>30 μM.

Compound	EC50 [nM]
Cc1cc(-c2ccc(C(F)(F)F)cc2NS(C)(=O)=O)nnc1N[C@@H]1CCCN(CCO)C1 [Compound 9, (R)—N-(2-(6-((1-(2-Hydroxyethyl)piperidin-3-yl)amino)-5-methylpyridazin-3-yl)-5-(trifluoromethyl)phenyl) methanesulfonamide]	500 to 1000
Cc1cc(N[C@@H]2CCCN(C)C2)nnc1-c1ccc(C(F)(F)F)c2c1NS(=O)(=O)N2 [Compound 10, (R)-4-(4-Methyl-6-((1-methylpiperidin-3-yl)amino)pyridazin-3-yl)-7-(trifluoromethyl)-1,3-dihydrobenzo[c][1,2,5]thiadiazole 2,2-dioxide]	5000 to 30000
Cc1cc(N[C@@H]2CCCN(C)C2)nnc1-c1ccc(C(F)(F)F)c2cn[nH]c12 [Compound 14, (R)-5-Methyl-N-(1-methylpiperidin-3-yl)-6-(4-(trifluoromethyl)-1H-indazol-7-yl)pyridazin-3-amine]	1000 to 5000
CCN1CCC[C@@H](Nc2cc(C)c(-c3ccc(C(F)(F)F)c4cn[nH]c34)nn2)C1 [Compound 15, (R)—N-(1-Ethylpiperidin-3-yl)-5-methyl-6-(4-(trifluoromethyl)-1H-indazol-7-yl)pyridazin-3-amine]	1000 to 5000
Cc1cc(N[C@@H]2CCCN(CCO)C2)nnc1-c1ccc(C(F)(F)F)c2cn[nH]c12 [Compound 16, (R)-2-(3-((5-Methyl-6-(4-(trifluoromethyl)-1H-indazol-7-yl)pyridazin-3-yl)amino)piperidin-1-yl) ethan-1-ol]	1000 to 5000
Cc1cc(-c2ccc(C(F)(F)F)c3cn[nH]c23)nnc1N[C@@H]1CCCN(C)C1 [Compound 17, (R)-4-Methyl-N-(1-methylpiperidin-3-yl)-6-(4-(trifluoromethyl)-1H-indazol-7-yl)pyridazin-3-amine]	5000 to 30000

The remaining lines, values ahead:

EC50 [nM]	Compound
1000 to 5000	Cc1cc(C(F)(F)F)cc(NS(C)(=O)=O)c1-c1ccc(N[C@@H]2CCCN(C)C2)nn1 [Compound 1, (R)—N-(3-methyl-2-(6-((1-methylpiperidin-3-yl)amino)pyridazin-3-yl)-5-(trifluoromethyl)phenyl) methanesulfonamide]
500 to 1000	CCN1CCC[C@@H](Nc2ccc(-c3c(C)cc(C(F)(F)F)cc3NS(C)(=O)=O)nn2)C1 [Compound 2, (R)—N-(2-(6-((1-Ethylpiperidin-3-yl)amino)pyridazin-3-yl)-3-methyl-5-(trifluoromethyl)phenyl) methanesulfonamide]
500 to 1000	Cc1cc(N[C@@H]2CCCN(C)C2)nnc1-c1ccc(C(F)(F)F)cc1NS(C)(=O)=O [Compound 4, (R)—N-(2-(4-Methyl-6-((1-methylpiperidin-3-yl)amino)pyridazin-3-yl)-5-(trifluoromethyl)phenyl) methanesulfonamide]
< 500	CCN1CCC[C@@H](Nc2cc(C)c(-c3ccc(C(F)(F)F)cc3NS(C)(=O)=O)nn2)C1 [Compound 5, (R)—N-(2-(6-((1-Ethylpiperidin-3-yl)amino)-4-methylpyridazin-3-yl)-5-(trifluoromethyl)phenyl) methanesulfonamide]
500 to 1000	Cc1cc(N[C@@H]2CCCN(CCO)C2)nnc1-c1ccc(C(F)(F)F)cc1NS(C)(=O)=O [Compound 6, (R)—N-(2-(6-((1-(2-Hydroxyethyl)piperidin-3-yl)amino)-4-methylpyridazin-3-yl)-5-(trifluoromethyl)phenyl) methanesulfonamide]
< 500	Cc1cc(-c2ccc(C(F)(F)F)cc2NS(C)(=O)=O)nnc1N[C@@H]1CCCN(C)C1 [Compound 7, (R)—N-(2-(5-Methyl-6-((1-methylpiperidin-3-yl)amino)pyridazin-3-yl)-5-(trifluoromethyl)phenyl) methanesulfonamide]
< 500	CCN1CCC[C@@H](Nc2nnc(-c3ccc(C(F)(F)F)cc3NS(C)(=O)=O)cc2C)C1 [Compound 8, (R)—N-(2-(6-((1-Ethylpiperidin-3-yl)amino)-5-methylpyridazin-3-yl)-5-(trifluoromethyl)phenyl) methanesulfonamide]
